# Reference: ChEMBL document CHEMBL5052856, “Inhibitors of apol1 and methods of using same” (2021)
# Legend:
# Apolipoprotein L1 = Apolipoprotein L1 (Homo sapiens, UniProt O14791); assay: Inhibition of APOL1 G1 variant in human HEK293-T-REx cells measured by Thallium assay; assay type: cell-based
# [1] = tested on: Trypanosoma brucei brucei; assay: Antitrypanosomal activity against Trypanosoma brucei brucei assessed as trypanosome lysis using recombinant APOL1 protein G1 variant and measured by Alamar blue based fluoresence assay; assay type: functional, organism-based
SMILES,IC50 (Apolipoprotein L1) [µM],IC50 [1] [µM]
O=C([C@H]1C[C@H](c2c(-c3ccc(F)cc3)[nH]c3c(F)cc(F)cc32)C1)N1CCCCC1CCO (some centres undefined),> 1,> 1
O=C([C@H]1C[C@H](c2c(-c3ccc(F)cc3)[nH]c3c(F)cc(F)cc32)C1)N1CCC(CO)(CO)CC1,> 1,> 1
CN1CC(CNC(=O)[C@H]2C[C@H](c3c(-c4ccc(F)cc4)[nH]c4c(F)cc(F)cc43)C2)CC1=O (some centres undefined),> 1,> 1
O=C(NC1(CCO)CC1)[C@H]1C[C@H](c2c(-c3ccc(F)cc3)[nH]c3c(F)cc(F)cc32)C1,0.00025,0.25
O=C([C@H]1C[C@H](c2c(-c3ccc(F)cc3)[nH]c3c(F)cc(F)cc32)C1)N1CC[C@H](CO)[C@H](O)C1,> 1,> 1
O=C1NCC[C@H]1NC(=O)[C@H]1C[C@H](c2c(-c3ccc(F)cc3)[nH]c3c(F)cc(F)cc32)C1,0.00025,< 0.25
CN(CC1(CO)CC1)C(=O)[C@H]1C[C@H](c2c(-c3ccc(F)cc3)[nH]c3c(F)cc(F)cc32)C1,> 1,> 1
CCNC(=O)[C@@H]1CCCN1C(=O)[C@H]1C[C@H](c2c(-c3ccc(F)cc3)[nH]c3c(F)cc(F)cc32)C1,> 1,> 1
C[C@@H](NC(=O)[C@H]1C[C@H](c2c(-c3ccc(F)cc3)[nH]c3c(F)cc(F)cc32)C1)C(=O)N(C)C,> 1,> 1
CC(C)(NC(=O)[C@H]1C[C@H](c2c(-c3ccc(F)cc3)[nH]c3c(F)cc(F)cc32)C1)C(=O)N1CCOCC1,> 1,> 1
CC(=O)NC1CCCN(C(=O)[C@H]2C[C@H](c3c(-c4ccc(F)cc4)[nH]c4c(F)cc(F)cc43)C2)C1 (some centres undefined),> 1,> 1
CC(NC(=O)[C@H]1C[C@H](c2c(-c3ccc(F)cc3)[nH]c3c(F)cc(F)cc32)C1)c1ccnn1C (some centres undefined),> 1,> 1
O=C([C@H]1C[C@H](c2c(-c3ccc(F)cc3)[nH]c3c(F)cc(F)cc32)C1)N1CCC2(COC2)C1,> 1,> 1
CCOCC1(CNC(=O)[C@H]2C[C@H](c3c(-c4ccc(F)cc4)[nH]c4c(F)cc(F)cc43)C2)CC1,> 1,> 1
CN1CCN(C(=O)CNC(=O)[C@H]2C[C@H](c3c(-c4ccc(F)cc4)[nH]c4c(F)cc(F)cc43)C2)CC1,> 1,> 1
NC(=O)[C@@H]1CCCN1C(=O)[C@H]1C[C@H](c2c(-c3ccc(F)cc3)[nH]c3c(F)cc(F)cc32)C1,> 1,> 1

SMILES,IC50 (Apolipoprotein L1) [µM],IC50 [1] [µM]
CC1CC(NC(=O)[C@H]2C[C@H](c3c(-c4ccc(F)cc4)[nH]c4c(F)cc(F)cc43)C2)C(=O)N1 (some centres undefined),> 1,0.25
O=C(NC1(CO)CC1)[C@H]1C[C@H](c2c(-c3ccc(F)cc3)[nH]c3c(F)cc(F)cc32)C1,0.00025,< 0.25
O=C(NCC1(CO)COC1)[C@H]1C[C@H](c2c(-c3ccc(F)cc3)[nH]c3c(F)cc(F)cc32)C1,> 1,> 1
CC(NC(=O)[C@H]1C[C@H](c2c(-c3ccc(F)cc3)[nH]c3c(F)cc(F)cc32)C1)C(N)=O (some centres undefined),0.00025,0.25
CC1(O)CN(C(=O)[C@H]2C[C@H](c3c(-c4ccc(F)cc4)[nH]c4c(F)cc(F)cc43)C2)C1,0.00025,0.25
CC(NC(=O)[C@H]1C[C@H](c2c(-c3ccc(F)cc3)[nH]c3c(F)cc(F)cc32)C1)c1ccn(C)n1 (some centres undefined),0.00025,< 0.25
COCc1cc(CNC(=O)[C@H]2C[C@H](c3c(-c4ccc(F)cc4)[nH]c4c(F)cc(F)cc43)C2)n[nH]1,> 1,> 1
O=C([C@H]1C[C@H](c2c(-c3ccc(F)cc3)[nH]c3c(F)cc(F)cc32)C1)N1C[C@H]2C[C@@]2(CO)C1,> 1,> 1
O=C([C@H]1C[C@H](c2c(-c3ccc(F)cc3)[nH]c3c(F)cc(F)cc32)C1)N1C2CCC(C2)C1CO (some centres undefined),> 1,> 1
O=C([C@H]1C[C@H](c2c(-c3ccc(F)cc3)[nH]c3c(F)cc(F)cc32)C1)N1CC[C@H](CO)C1,> 1,> 1
CN(CC(N)=O)C(=O)[C@H]1C[C@H](c2c(-c3ccc(F)cc3)[nH]c3c(F)cc(F)cc32)C1,0.00025,0.25
CN(C)C[C@@H]1CCN(C(=O)[C@H]2C[C@H](c3c(-c4ccc(F)cc4)[nH]c4c(F)cc(F)cc43)C2)C[C@H]1O,> 1,0.25
O=C([C@H]1C[C@H](c2c(-c3ccc(F)cc3)[nH]c3c(F)cc(F)cc32)C1)N1C[C@@H]2[C@@H](CO)[C@@H]2C1,> 1,> 1
O=C([C@H]1C[C@H](c2c(-c3ccc(F)cc3)[nH]c3c(F)cc(F)cc32)C1)N1CCCC[C@@H]1CO,> 1,0.25
O=C(NCCCO)[C@H]1C[C@H](c2c(-c3ccc(F)cc3)[nH]c3c(F)cc(F)cc32)C1,0.00025,< 0.25
C[C@H](O)CNC(=O)[C@H]1C[C@H](c2c(-c3ccc(F)cc3)[nH]c3c(F)cc(F)cc32)C1,0.00025,0.25
